According to US20210255193A1, “LYSINE REACTIVE PROBES AND USES THEREOF” (The Scripps Research Institute, priority 2017, published 2021):

Legend:
Assay in all cases: competitive isoTOP-ABPP
Format in all cases: binding
CUL2 Cullin-2 = target: T1, CUL2 Cullin-2 (Homo sapiens, UniProt Q13617)
T1 construct: isoTOP-ABPP experiments performed in cell lysates (in vitro); endogenous in cells; host or cells: soluble proteome of human cancer cell lines (MDA-MB-231, Ramos, Jurkat)
Summary of the method: (§1)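 Cell lysate treated in vitro with fragments (50 μM activated esters, 100 μM guanidinylating agents) or DMSO, labelled 1 h at ambient temperature with 0.1 mM STP-alkyne, CuAAC-tagged with light/heavy TEV tags, analysed by MS. R = DMSO/compound MS1 peak-area ratio; lysines with R≥4 called liganded.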

[1] = target: T2, GLOD4 Glyoxalase domain-containing protein 4 (Homo sapiens, UniProt Q9HC38)
T2 construct: endogenous in cells; host or cells: MDA-MB-231 (soluble fraction of lysate)
T2 sequence (Q9HC38 1-313): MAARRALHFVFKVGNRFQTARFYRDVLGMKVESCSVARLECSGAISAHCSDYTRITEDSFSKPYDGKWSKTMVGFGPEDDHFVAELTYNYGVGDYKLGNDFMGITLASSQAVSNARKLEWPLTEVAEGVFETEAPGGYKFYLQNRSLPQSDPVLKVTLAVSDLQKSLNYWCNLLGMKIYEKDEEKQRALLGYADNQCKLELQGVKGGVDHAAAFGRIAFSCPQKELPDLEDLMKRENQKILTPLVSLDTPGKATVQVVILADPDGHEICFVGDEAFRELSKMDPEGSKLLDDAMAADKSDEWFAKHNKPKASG
Summary of the method: as §1

[2] = target: T3, PFKL 6-phosphofructokinase, liver type (Homo sapiens, UniProt P17858); conditions: for isoTOP-ABPP reactivity ratio at lysine P17858_K677 / isoTOP-ABPP reactivity ratio at lysine P17858_K715 / R value (DMSO/fragment) for probe 1 labeling / isoTOP-ABPP reactivity ratio at lysine P17858_K315: 231 sol; for isoTOP-ABPP ratio, lysine P17858_K677: possible other lysine P17858_K681; for isoTOP-ABPP ratio, lysine P17858_K715: possible other lysine P17858_K714
T3 construct: isoTOP-ABPP experiments performed in cell lysates (in vitro); endogenous in cells; host or cells: soluble proteome of human cancer cell lines (MDA-MB-231; Ramos and Jurkat also prepared)
T3 sequence (P17858 1-780): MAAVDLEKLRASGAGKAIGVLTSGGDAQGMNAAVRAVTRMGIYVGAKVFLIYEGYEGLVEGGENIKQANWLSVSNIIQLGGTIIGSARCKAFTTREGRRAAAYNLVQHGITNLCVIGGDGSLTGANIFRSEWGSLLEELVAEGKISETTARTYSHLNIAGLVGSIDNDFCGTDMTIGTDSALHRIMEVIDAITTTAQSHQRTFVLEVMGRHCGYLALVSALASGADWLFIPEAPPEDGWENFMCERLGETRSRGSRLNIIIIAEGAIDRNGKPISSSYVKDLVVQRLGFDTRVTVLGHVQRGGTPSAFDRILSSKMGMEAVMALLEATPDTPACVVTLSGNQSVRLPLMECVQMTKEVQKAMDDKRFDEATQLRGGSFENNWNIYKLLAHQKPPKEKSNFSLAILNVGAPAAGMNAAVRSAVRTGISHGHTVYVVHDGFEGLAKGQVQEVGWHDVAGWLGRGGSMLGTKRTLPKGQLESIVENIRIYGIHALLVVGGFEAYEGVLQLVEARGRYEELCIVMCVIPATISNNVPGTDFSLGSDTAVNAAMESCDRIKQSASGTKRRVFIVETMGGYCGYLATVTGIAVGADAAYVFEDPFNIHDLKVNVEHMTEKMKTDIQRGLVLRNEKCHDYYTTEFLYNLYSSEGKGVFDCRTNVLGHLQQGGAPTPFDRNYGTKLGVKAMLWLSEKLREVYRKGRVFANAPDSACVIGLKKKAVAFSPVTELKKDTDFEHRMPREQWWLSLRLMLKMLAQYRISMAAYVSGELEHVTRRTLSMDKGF
Summary of the method: as §1

T1 sequence (Q13617 whole entry): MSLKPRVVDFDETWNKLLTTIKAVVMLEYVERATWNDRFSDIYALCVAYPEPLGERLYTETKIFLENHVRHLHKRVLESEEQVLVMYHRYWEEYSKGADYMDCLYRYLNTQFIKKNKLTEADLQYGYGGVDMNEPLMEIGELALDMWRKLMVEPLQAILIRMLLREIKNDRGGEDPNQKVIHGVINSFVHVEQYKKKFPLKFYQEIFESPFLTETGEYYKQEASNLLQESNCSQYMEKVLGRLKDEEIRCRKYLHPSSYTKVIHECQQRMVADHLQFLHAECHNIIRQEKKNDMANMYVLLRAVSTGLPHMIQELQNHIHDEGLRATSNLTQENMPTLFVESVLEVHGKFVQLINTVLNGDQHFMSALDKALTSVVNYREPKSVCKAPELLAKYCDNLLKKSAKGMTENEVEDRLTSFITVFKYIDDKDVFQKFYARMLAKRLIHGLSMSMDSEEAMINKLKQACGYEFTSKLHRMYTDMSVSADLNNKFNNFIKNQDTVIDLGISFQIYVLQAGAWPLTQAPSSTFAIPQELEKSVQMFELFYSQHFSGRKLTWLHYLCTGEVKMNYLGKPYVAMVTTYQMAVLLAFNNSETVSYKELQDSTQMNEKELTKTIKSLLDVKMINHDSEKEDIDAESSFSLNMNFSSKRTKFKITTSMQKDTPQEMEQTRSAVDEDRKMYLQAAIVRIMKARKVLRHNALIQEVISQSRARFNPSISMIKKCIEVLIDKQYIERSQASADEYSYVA

SMILES | isoTOP-ABPP reactivity ratio at lysine Q13617_K489 (CUL2 Cullin-2; 50 uM, 231 sol, in vitro) | isoTOP-ABPP reactivity ratio at lysine Q9HC38_K305 ([1]; 50 uM, 231 sol, in vitro) | isoTOP-ABPP reactivity ratio at lysine P17858_K677 ([2]; 50 uM, in vitro) | isoTOP-ABPP reactivity ratio at lysine P17858_K715 ([2]; 50 uM, in vitro) | isoTOP-ABPP reactivity ratio at lysine P17858_K315 ([2]; 50 uM, in vitro) | also measured
O=C(CN1C(=O)c2ccccc2C1=O)Oc1c(F)c(F)c(F)c(F)c1F [fragment 27, Pentafluorophenyl 2-(1,3-dioxoisoindolin-2-yl)acetate] | 1.1 | 0.5 | 18.1 | 1.3 |  | 
O=C(CCc1cn(-c2ccccc2)nc1-c1ccccc1)Oc1c(F)c(F)c(F)c(F)c1F [fragment 19, Pentafluorophenyl 3-(1,3-diphenyl-1H-pyrazol-4-yl)propanoate] |  |  |  |  |  | R value (DMSO/fragment) for probe 1 labeling (CUL2 Cullin-2; Q13617_K489, 50 uM, 231 sol, in vitro): 0.8; R value (DMSO/fragment) for probe 1 labeling ([1]; Q9HC38_K305, 50 uM, 231 sol, in vitro): 0.9; R value (DMSO/fragment) for probe 1 labeling ([2]; P17858_K315, 50 uM, in vitro): 1.0; R value (DMSO/fragment) for probe 1 labeling ([2]; P17858_K677, 50 uM, in vitro): 1.2; R value (DMSO/fragment) for probe 1 labeling ([2]; P17858_K715, 50 uM, in vitro): 1.6
COc1cc(CCC(=O)Oc2ccc([N+](=O)[O-])cc2[N+](=O)[O-])cc(OC)c1OC [fragment 33, 2,4-Dinitrophenyl 3-(3,4,5-trimethoxyphenyl)propanoate] | 1.2 | 0.4 | 2.0 | 1.1 | 0.8 | 
O=C(Oc1ccc([N+](=O)[O-])cc1[N+](=O)[O-])C(c1ccccc1)c1ccccc1 [fragment 30, 2,4-Dinitrophenyl 2,2-diphenylacetate] | 1.1 | 0.6 | 20.0 |  | 4.9 | 
O=C(Oc1ccc([N+](=O)[O-])cc1[N+](=O)[O-])c1cc(C(F)(F)F)cc(C(F)(F)F)c1 [fragment 31, 2,4-Dinitrophenyl 3,5-bis(trifluoromethyl)benzoate] | 1.1 | 0.5 | 2.5 | 2.3 |  | 
O=C(CCc1cn(-c2ccccc2)nc1-c1ccccc1)Oc1ccc([N+](=O)[O-])cc1[N+](=O)[O-] [fragment 29, 2,4-Dinitrophenyl 3-(1,3-diphenyl-1H-pyrazol-4-yl)propanoate] | 1.2 | 0.9 | 2.0 | 6.8 | 0.8 | 
CC(=O)Oc1ccc([N+](=O)[O-])cc1[N+](=O)[O-] [fragment 43, 2,4-Dinitrophenyl acetate] |  |  |  |  |  | isoTOP-ABPP ratio (R) at liganded lysine Q13617_K489 (CUL2 Cullin-2; 50 uM, in vitro, sol, 231): 1.2; isoTOP-ABPP ratio (R) at liganded lysine Q9HC38_K305 ([1]; 50 uM, in vitro, sol, 231): 0.7; isoTOP-ABPP ratio (R) at liganded lysine P17858_K677 ([2]; 50 uM, in vitro, sol, 231): 3.2; isoTOP-ABPP ratio (R) at liganded lysine P17858_K715 ([2]; 50 uM, in vitro, sol, 231): 1.3
O=C(Oc1c(F)c(F)cc(F)c1F)c1cc(C(F)(F)F)cc(C(F)(F)F)c1 [fragment 48, 2,3,5,6-Tetrafluorophenyl 3,5-bis(trifluoromethyl)benzoate] |  |  |  |  |  | isoTOP-ABPP ratio, lysine Q13617_K489 (CUL2 Cullin-2; 50 uM_231_sol_in vitro): 0.8; isoTOP-ABPP ratio, lysine P17858_K315 ([2]; 50 uM_231_sol_in vitro): 0.7; isoTOP-ABPP ratio, lysine P17858_K677 ([2]; 50 uM_231_sol_in vitro): 0.9; isoTOP-ABPP ratio, lysine P17858_K715 ([2]; 50 uM_231_sol_in vitro): 1.0
CC(C)(C)OC(=O)N=C(NC(=O)OC(C)(C)C)n1cccn1 [fragment 50, reference compound] |  |  |  |  |  | isoTOP-ABPP ratio, lysine Q13617_K489 (CUL2 Cullin-2; 100 uM_231_sol_in vitro): 1.0; isoTOP-ABPP ratio, lysine Q9HC38_K305 ([1]; 100 uM_231_sol_in vitro): 1.1; isoTOP-ABPP ratio, lysine P17858_K677 ([2]; 100 uM_231_sol_in vitro): 20.0; isoTOP-ABPP ratio, lysine P17858_K715 ([2]; 100 uM_231_sol_in vitro): 2.9
Cn1cc(CC(=O)Oc2ccc([N+](=O)[O-])cc2[N+](=O)[O-])c2ccccc21 [fragment 32, 2,4-Dinitrophenyl 2-(1-methyl-1H-indol-3-yl)acetate] | 1.1 |  | 11.9 | 7.7 | 20.0 | 
